Reference: BindingDB's records for doi:10.1073/pnas.90.2.408 (Synaptic Pharmaceutical, 1993)

Target: T1, 5-hydroxytryptamine receptor 1F (Homo sapiens, UniProt P30939)
T1 sequence (P30939 whole entry): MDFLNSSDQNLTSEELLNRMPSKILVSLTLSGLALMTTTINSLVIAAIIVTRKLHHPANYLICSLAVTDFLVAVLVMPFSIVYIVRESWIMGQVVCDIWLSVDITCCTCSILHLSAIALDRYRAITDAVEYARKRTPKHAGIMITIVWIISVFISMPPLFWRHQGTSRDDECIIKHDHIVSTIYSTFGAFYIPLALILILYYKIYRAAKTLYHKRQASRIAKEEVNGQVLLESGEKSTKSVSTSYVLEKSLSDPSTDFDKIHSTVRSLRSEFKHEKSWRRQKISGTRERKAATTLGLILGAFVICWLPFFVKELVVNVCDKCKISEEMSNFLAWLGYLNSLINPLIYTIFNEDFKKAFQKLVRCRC

Compared with `Cn1cc(CCN)c2cc(O)ccc21` [5-HT,omega-N-Me], `COc1ccc2[nH]cc(CCN)c2c1` [tryptamine, 5-Methoxy] is 6.4-fold higher in Ki: 184 nM for the first, 1170 nM for the second.

Going from `CSc1ccc2c(c1)C(N1CCN(C)CC1)Cc1ccccc1S2` (configuration not stated) [methanesulfonic acid;1-methyl-4-(3-methylsulfanyl-5,6-dihydrobenzo[b][1]benzothiepin-5-yl)piperazine] to `O=C(c1ccc(F)cc1)C1CCN(CCn2c(=O)[nH]c3ccccc3c2=O)CC1` [3-(2-{4-[(4-fluorophenyl)carbonyl]piperidin-1-yl}ethyl)-1,2,3,4-tetrahydroquinazoline-2,4-dione], the Ki rises from 652 nM to over 10000 nM.

Going from `COc1ccc2[nH]cc(CCN(C)C)c2c1` [3-(2-DIMETHYLAMINOETHYL)-5-METHOXYINDOLE] to `CCCN(CCC)CCc1c[nH]c2ccc(C(N)=O)cc12` [NN-DIPROP-5-CT], the Ki rises from 37 nM to 1610 nM (44-fold). The first binds more tightly here.

Compared with `COc1cc(N)c(Cl)cc1C(=O)NC1CN2CCC1CC2` (configuration not stated) [ZACOPRIDE,R], `COc1cc(CC(C)N)c(OC)cc1I` (configuration not stated) [[125I]2,5-dimethoxy-4-iodoamphetamine] is lower in Ki: over 10000 nM for the first, 1740 nM for the second. The second binds more tightly here.

Compared with `CCCN(CCC)C1CCc2cccc(O)c2C1` (configuration not stated), `CN1C[C@@H](NS(=O)(=O)N(C)C)C[C@@H]2c3cccc4c3c(cn4C)C[C@H]21` [MESULERGINE] is higher in Ki: 1770 nM for the first, over 10000 nM for the second. The first binds more tightly here.

`O=C(CCCN1CCC2(CC1)C(=O)NCN2c1ccccc1)c1ccc(F)cc1` [8-[4-(4-fluorophenyl)-4-oxidanylidene-butyl]-1-phenyl-1,3,8-triazaspiro[4.5]decan-4-one] and `CC(C)NCC(O)COc1cccc2[nH]ccc12` (configuration not stated) [LB-46] cannot be ordered by Ki: over 10000 nM for the first, over 10000 nM for the second.
